According to patent US20130053337A1, “GUANIDINYLATED AMINOGLYCOSIDE-LIPID CONJUGATES” (UNIVERSITY OF MANITOBA, priority 2010, published 2013):
In brackets after ≈: the same amount, converted by molar mass.

Tests used:
[1] = tested on: E. coli (amikacin MIC 32 mg/L) CAN-ICU 63074; settings: E. coli CAN-ICU 63074; Zhanel et al., 2008; cited from earlier work
MRSA ATCC 33592 = assay: MIC, broth macrodilution (CLSI); type: cell-based, methicillin-resistant Staphylococcus aureus; settings: MRSA ATCC33592
Procedure: (§1) All experiments were performed in duplicate.
(§2) Bacterial isolates studied included both reference strains obtained from the American Type Culture Collection (ATCC) as well as clinical strains obtained from the CAN-ICU study which was a national surveillance study assessing the prevalence of antimicrobial resistant pathogens in Canadian intensive care units (Zhanel et al., 2008). Isolates were kept frozen in skim milk at −80° C. until minimum inhibitory concentration (MIC) testing was carried out. Following two subcultures from frozen stock, the in vitro activities of peptides were determined by macrobroth dilution in accordance with the Clinical and Laboratory Standards Institute (CLSI) 2006 guidelines (Zhanel et al., 2008). Stock solutions of peptides were prepared and dilutions made as described by CLSI. Test tubes contained doubling antimicrobial dilutions of cation adjusted Mueller-Hinton broth and inoculated to achieve a final concentration of approximately 5×10^5 cfu/ml then incubated in ambient air for 24 hours prior to reading. Colony counts were performed periodically to confirm inocula. Quality control was regularly performed using ATCC QC organisms.

S. aureus ATCC 29213 = assay: MIC, broth macrodilution (CLSI); type: cell-based, Staphylococcus aureus; settings: S. aureus ATCC29213
Procedure: as §1, §2

[2] = tested on: E. coli (gentamicin-resistant) CAN-ICU 61714; assay: MIC, broth macrodilution (CLSI); type: cell-based; settings: E. coli CAN-ICU 61714
Procedure: as §1, §2

[3] = tested on: P. aeruginosa (gentamicin-resistant) CAN-ICU 62308; assay: MIC, broth macrodilution (CLSI); type: cell-based; settings: P. aeruginosa CAN-ICU 62308
Procedure: as §1, §2

[4] = tested on: E. coli (amikacin MIC 32 mg/L) CAN-ICU 63074; assay: MIC, broth macrodilution (CLSI); type: cell-based; settings: E. coli CAN-ICU 63074
Procedure: as §1, §2

E. coli ATCC 25922 = assay: MIC, broth macrodilution (CLSI); type: cell-based; settings: E. coli ATCC25922
Procedure: as §1, §2

P. aeruginosa ATCC 27853 = assay: MIC, broth macrodilution (CLSI); type: cell-based; settings: P. aeruginosa ATCC27853
Procedure: as §1, §2

MRSE CAN-ICU 61589 = assay: MIC, broth macrodilution (CLSI); type: cell-based, methicillin-resistant Staphylococcus epidermidis
Procedure: as §1, §2

[5] = tested on: E. coli (gentamicin-resistant) CAN-ICU 61714; settings: E. coli CAN-ICU 61714; Zhanel et al., 2008; cited from earlier work
S. pneumoniae ATCC 49619 = assay: MIC, broth macrodilution (CLSI), broth with 5% laked horse blood; type: cell-based, Streptococcus pneumoniae; settings: S. pneumoniae ATCC49619
Procedure: as §1, §2

[6] = tested on: S. epidermidis ATCC 14990; assay: MIC, broth macrodilution (CLSI); type: cell-based, Staphylococcus epidermidis; settings: S. epidermidis ATCC14990
Procedure: as §1, §2

[7] = tested on: P. aeruginosa (gentamicin-resistant) CAN-ICU 62308; settings: P. aeruginosa CAN-ICU 62308; Zhanel et al., 2008; cited from earlier work
[8] = tested on: methicillin-resistant S. aureus (MRSA); settings: Bera et al., 2008; cited from earlier work
[9] = tested on: sheep red blood cell (erythrocytes); assay: Hemolytic assay (in vitro toxicity); settings: 100 mg/L; sheep erythrocytes; percent hemolysis
Procedure: Antibacterial activity against Gram-positive and Gram-negative microorganisms was tested via broth macrodilution tests using CLSI methodology (Zhanel et al., 2008). Stock solutions of cationic lipids in water were brought to a concentration of 512 mg/L. Organisms were subcultured and isolated on blood agar, suspended in 3 mL of Mueller-Hinton broth at the turbidity of a […], and diluted to approximately 10^5 cfu/mL before introduction into tubes containing serially diluted lipopeptide antibiotic in Mueller-Hinton broth. Activity testing against S. pneumoniae used broth supplemented with laked horse blood to give 5% horse blood in experimental tubes. Turbidity of lipopeptide solution in broth required creation of control tubes lacking organisms serving as turbidity controls. All tubes were incubated overnight for 16-20 h at 37° C. […] All experiments were performed in duplicate. In-vitro toxicity was determined using a sheep red blood cell hemolytic assay as previously described (Dathe et al., 1996).
In vitro toxicity was determined using a sheep red blood cell (erythrocytes) hemolytic assay (Dathe et al., 1996). […] Erythrocytes were washed and resuspended in Tris buffered saline. The cell suspension was combined with varying concentrations (low to very high) of test and control antimicrobials (e.g., aminoglycosides and APTCs). The samples were centrifuged and the absorbance of the supernatants measured at 540 nm. Tris buffered saline and Triton X were used as negative and positive controls, respectively. The toxicity was assessed by percent hemolysis.

## NCC[C@H](O)C(=O)N[C@@H]1C[C@H](N)[C@@H](O[C@H]2O[C@H](CN)[C@@H](O)[C@H](O)[C@H]2O)[C@H](O)[C@H]1O[C@H]1O[C@H](CO)[C@@H](O)[C@H](N)[C@H]1O [amikacin]
[1]
  MIC (strain description): 32 µg/mL (≈ 54.6 µM)

## Gentamicin [reference compound]
MRSA ATCC 33592
  MIC: 2 µg/mL
S. aureus ATCC 29213
  MIC: 1 µg/mL
[2]
  MIC: 128 µg/mL
[3]
  MIC: 128 µg/mL
[4]
  MIC: 8 µg/mL
E. coli ATCC 25922
  MIC: 1 µg/mL
P. aeruginosa ATCC 27853
  MIC: 8 µg/mL
MRSE CAN-ICU 61589
  MIC: 32 µg/mL
[5]
  MIC (strain description): > 32 µg/mL
S. pneumoniae ATCC 49619
  MIC: 4 µg/mL
[6]
  MIC: 0.25 µg/mL
[7]
  MIC (strain description): > 32 µg/mL

## NC[C@@H]1O[C@H](O[C@H]2[C@@H](O)[C@H](O[C@@H]3[C@@H](O)[C@H](N)C[C@H](N)[C@H]3O[C@H]3O[C@H](CN)[C@@H](O)[C@H](O)[C@H]3N)O[C@@H]2CO)[C@H](N)[C@@H](O)[C@@H]1O [Neomycin B, reference compound]
MRSA ATCC 33592
  MIC: 256 µg/mL (≈ 416 µM)
S. aureus ATCC 29213
  MIC: 1 µg/mL (≈ 1.63 µM)
[2]
  MIC: 8 µg/mL (≈ 13 µM)
[3]
  MIC: 512 µg/mL (≈ 833 µM)
E. coli ATCC 25922
  MIC: 4 µg/mL (≈ 6.51 µM)
P. aeruginosa ATCC 27853
  MIC: 512 µg/mL (≈ 833 µM)
MRSE CAN-ICU 61589
  MIC: 0.5 µg/mL (≈ 0.813 µM)
[8]
  MIC: 256 µg/mL (≈ 416 µM)
S. pneumoniae ATCC 49619
  MIC: 32 µg/mL (≈ 52.1 µM)
[6]
  MIC: 0.25 µg/mL (≈ 0.407 µM)
[9]
  hemolytic activity at 100 mg/L: <0.3%
